Experimental data from patent publication US20090233939A1, “TREATMENT OF AMM” (priority 2002, published 2009).

Legend:
[1] = test system: patient having a protuberant spleen; assay: Example 2: patient with massive protuberant spleen treated with PTK787; type: in vivo, human; details: 750 mg twice daily, after five days of therapy
Source text: After five days of therapy, the spleen had less than 10% of its original size.

[2] = test system: patient with splenomegaly
Flt-1 = Flt-1 (Homo sapiens, UniProt P17948); details: cited from earlier work
Flt-4 = Flt-4 (Homo sapiens, UniProt P35916); details: cited from earlier work
[3] = test system: other tyrosine kinase receptors, including c-Kit, bFGF and PDGF; details: cited from earlier work

Chain of Flt-1 (P17948 27-1338, species assumed): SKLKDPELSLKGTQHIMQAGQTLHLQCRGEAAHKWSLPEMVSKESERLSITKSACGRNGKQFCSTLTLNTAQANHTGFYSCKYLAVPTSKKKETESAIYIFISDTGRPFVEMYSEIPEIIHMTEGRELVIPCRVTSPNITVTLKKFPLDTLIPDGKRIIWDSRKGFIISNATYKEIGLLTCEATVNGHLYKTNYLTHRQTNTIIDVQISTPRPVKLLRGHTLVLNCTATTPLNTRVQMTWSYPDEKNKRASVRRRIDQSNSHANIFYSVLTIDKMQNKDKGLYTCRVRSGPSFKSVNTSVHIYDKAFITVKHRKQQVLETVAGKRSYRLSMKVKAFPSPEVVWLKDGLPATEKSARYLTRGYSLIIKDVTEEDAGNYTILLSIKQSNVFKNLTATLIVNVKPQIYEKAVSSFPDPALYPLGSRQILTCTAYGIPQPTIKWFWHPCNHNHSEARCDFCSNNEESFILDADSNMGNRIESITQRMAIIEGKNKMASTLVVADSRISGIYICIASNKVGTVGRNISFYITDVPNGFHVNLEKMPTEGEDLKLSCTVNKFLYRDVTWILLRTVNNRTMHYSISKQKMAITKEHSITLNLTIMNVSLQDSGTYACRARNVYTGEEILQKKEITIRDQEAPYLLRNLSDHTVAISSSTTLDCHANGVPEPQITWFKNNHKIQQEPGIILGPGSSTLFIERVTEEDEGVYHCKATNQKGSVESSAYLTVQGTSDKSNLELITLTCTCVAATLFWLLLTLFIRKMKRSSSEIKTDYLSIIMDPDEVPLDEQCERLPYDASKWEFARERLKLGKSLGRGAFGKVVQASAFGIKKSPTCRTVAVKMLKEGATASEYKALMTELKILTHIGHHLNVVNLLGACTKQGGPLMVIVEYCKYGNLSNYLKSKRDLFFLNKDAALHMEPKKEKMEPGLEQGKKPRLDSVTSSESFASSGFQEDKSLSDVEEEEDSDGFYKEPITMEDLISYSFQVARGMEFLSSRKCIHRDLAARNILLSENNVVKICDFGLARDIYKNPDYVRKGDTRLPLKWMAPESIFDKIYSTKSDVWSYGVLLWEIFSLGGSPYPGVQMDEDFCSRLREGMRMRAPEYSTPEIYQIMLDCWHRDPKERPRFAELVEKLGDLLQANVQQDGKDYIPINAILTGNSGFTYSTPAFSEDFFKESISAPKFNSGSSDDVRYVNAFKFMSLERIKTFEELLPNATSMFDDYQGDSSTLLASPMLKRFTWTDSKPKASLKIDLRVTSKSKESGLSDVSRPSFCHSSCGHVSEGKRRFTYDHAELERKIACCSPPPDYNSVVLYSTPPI
Chain of Flt-4 (P35916 25-1363, species assumed): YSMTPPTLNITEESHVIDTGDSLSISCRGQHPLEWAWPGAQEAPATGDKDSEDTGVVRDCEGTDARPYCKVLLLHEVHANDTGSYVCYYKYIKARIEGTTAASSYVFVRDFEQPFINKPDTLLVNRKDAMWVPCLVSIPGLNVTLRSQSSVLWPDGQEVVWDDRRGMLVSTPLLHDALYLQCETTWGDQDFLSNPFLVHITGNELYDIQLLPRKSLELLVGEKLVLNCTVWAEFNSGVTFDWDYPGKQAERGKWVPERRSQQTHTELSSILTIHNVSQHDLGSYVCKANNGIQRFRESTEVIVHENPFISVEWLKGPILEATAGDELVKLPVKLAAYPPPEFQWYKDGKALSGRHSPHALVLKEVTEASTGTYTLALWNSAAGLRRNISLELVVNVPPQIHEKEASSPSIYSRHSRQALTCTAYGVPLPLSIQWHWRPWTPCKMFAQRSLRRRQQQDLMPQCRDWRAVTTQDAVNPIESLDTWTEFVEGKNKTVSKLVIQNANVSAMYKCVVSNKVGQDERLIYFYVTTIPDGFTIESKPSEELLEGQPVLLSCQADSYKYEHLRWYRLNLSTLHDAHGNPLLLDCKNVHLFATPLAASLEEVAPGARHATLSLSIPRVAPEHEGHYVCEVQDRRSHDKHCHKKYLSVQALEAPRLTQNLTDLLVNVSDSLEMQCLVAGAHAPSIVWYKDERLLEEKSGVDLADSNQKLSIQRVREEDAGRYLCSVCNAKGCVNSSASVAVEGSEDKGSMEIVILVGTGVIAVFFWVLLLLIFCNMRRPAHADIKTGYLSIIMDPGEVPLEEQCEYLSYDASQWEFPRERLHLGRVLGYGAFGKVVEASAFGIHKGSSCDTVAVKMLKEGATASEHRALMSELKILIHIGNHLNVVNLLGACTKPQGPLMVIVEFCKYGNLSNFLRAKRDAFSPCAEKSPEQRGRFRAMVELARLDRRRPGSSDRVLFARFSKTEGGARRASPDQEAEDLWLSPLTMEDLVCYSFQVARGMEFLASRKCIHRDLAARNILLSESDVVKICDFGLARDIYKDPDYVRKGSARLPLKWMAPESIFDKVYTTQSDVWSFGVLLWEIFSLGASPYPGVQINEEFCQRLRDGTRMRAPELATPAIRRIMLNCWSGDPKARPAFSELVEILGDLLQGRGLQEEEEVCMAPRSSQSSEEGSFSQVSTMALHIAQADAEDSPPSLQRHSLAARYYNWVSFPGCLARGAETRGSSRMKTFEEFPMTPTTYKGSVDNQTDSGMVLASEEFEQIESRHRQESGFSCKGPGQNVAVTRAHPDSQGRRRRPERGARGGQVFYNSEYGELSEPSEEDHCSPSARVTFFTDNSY

PTK787
spleen size [1]: less than 10 % of its original size
splenomegaly ([2]; 750 mg twice daily, first 14 days of chemotherapy): decrease of splenomegaly
white blood cells count ([2]; 750 mg twice daily, first 14 days, drop from 19,000): 14,000
spleen during interruption of therapy ([2]; during the interruption of therapy): the spleen began to increase again
inhibition of Flt-1 (Flt-1): can also inhibit
inhibition of Flt-4 (Flt-4): can also inhibit
activity against other tyrosine kinase receptors [3]: has activity
